The values that follow are results of earlier work, collected in patent US20140234430A1, “PHARMACEUTICAL METHODS AND TOPICAL COMPOSITIONS CONTAINING ACITRETIN” (DOUGLAS PHARMACEUTICALS LTD., priority 2011, published 2014).

The structures appear in SMILES notation.

On to `COc1cc(C)c(/C=C/C(C)=C/C=C/C(C)=C/C(=O)O)c(C)c1C` [acitretin, (2E,4E,6E,8E)-9-(4-methoxy-2,3,6-trimethylphenyl)-3,7-dimethylnona-2,4,6,8-tetraenoic acid], for which, where the note is “suitable alcohols”, the Solubility in alcohols entry was “quite poorly soluble”. Besides, under “water”, the Solubility in water entry is recorded as “very poorly soluble”.
